Experimental data: patent US20160220569A1, “CDK4/6 Inhibitor Dosage Formulations For The Protection Of Hematopoietic Stem And Progenitor Cells During Chemotherapy” (G1 Therapeutics, Inc., priority 2015, published 2016)
Where “and” joins values, the source holds several entries; their conditions need not be identical. Equal values may be shown once. Read-outs that look alike come from different tables or passages of the source.

How the values were obtained:
[1] = Hematology (ANC, lymphocytes, hemoglobin, platelets) during etoposide and carboplatin chemotherapy; assay type: in vivo, human; details: 200 mg/m^2 with etoposide and carboplatin
From the text: As shown in FIG. 63A the absolute neutrophil count though affected by chemotherapy rarely dipped below the G1 phase. As shown in FIG. 63B the lymphocyte count though affected by chemotherapy rarely dipped below the G1 phase. As shown in FIG. 63C the hemoglobin concentration though affected by chemotherapy rarely dipped below the G1 phase. As shown in FIG. 63D the platelet count though affected by chemotherapy rarely dipped below the G1 phase.

[2] = Nonclinical IV and oral pharmacokinetics in dogs; assay type: in vivo; details: dog, plasma
[3] = Compound 1 PK dosed Days 1-3 with etoposide and carboplatin; assay type: in vivo, human
Experimental: Analysis of plasma concentration versus time data for calculation of standard pharmacokinetic (PK) parameters following intravenous infusion administration was conducted using Phoenix WinNonlin version 6.3 using a nominal infusion duration and scheduled blood sampling times.

[4] = Nonclinical IV and oral pharmacokinetics in rats; assay type: in vivo; details: rat, plasma
From the text: Systemic exposure in rats as measured by Cmax and AUClast was dose-dependent.

[5] = system: mouse splenocytes; assay: Interferon gamma from splenocytes stimulated ex vivo with anti-CD3/antiCD28 after 5FU; assay type: in vivo, C57BL/6 Mice; details: mice pretreated with 100 mg/kg Compound 1, 5FU 50 mg/kg
From the text: FIG. 59 is a bar graph of interferon gamma concentration (pg/ml) at day 2 and 7 for mouse splenocytes that were isolated and stimulated ex vivo with anti-CD3/antiCD28.

[6] = Repeat-dose IV toxicity in dogs; assay type: in vivo
Experimental: The magnitude and/or duration of this effect differed among cell lineages but was dose-related in all lineages. Effects on hematopoiesis were readily monitored by peripheral blood cell counts and were reversible when dosing stopped.
In both species, the toxicity profile was similar and the repeat-dose toxicity studies identified no observed adverse effect levels (NOAELs). […] This IV NOAEL was the basis for selecting a starting dose of 6 mg/m^2 for the first clinical trial, which is 1/10th of the lowest safe dose level in any animal study.

[7] = PK comparison of Compound 1 clinical data with literature PK of palbociclib; assay type: in vivo, human
[8] = Blood cell counts in mice after 5-Fluorouracil with or without Compound 1; assay type: in vivo; details: Compound 1 100 mg/kg before 5FU
Experimental: Blood cell counts for neutrophils, lymphocytes, red blood cells (RBCs), and platelets were conducted.

[9] = system: Target lesions; assay: Tumor response, Compound 1 with etoposide and carboplatin; assay type: in vivo, human; design: Cycle 2 Target Lesion Sum / Cycle4 Target Lesion Sum / Cycle 6 Target Lesion Sum: unit not given here
From the text: As shown in FIG. 64 all 6 patients had at least partial responses during the course of 2 to 6 cycles of chemotherapy. Target lesions were summed and response tabulated as follows: […]

[10] = 200 mg/m^2 with Etoposide and Carboplatin, Day 1, Max
[11] = 200 mg/m^2 with Etoposide and Carboplatin, Day 1, Min
[12] = 200 mg/m^2 with Etoposide and Carboplatin, Day 1, individual subjects
[13] = 200 mg/m^2 with Etoposide and Carboplatin, Day 3, Max
[14] = 200 mg/m^2 with Etoposide and Carboplatin, Day 3, Min
[15] = 200 mg/m^2 with Etoposide and Carboplatin, Day 3, individual subjects
[16] = human, plasma, 96 mg/m2, 96 mg/m^2 IV
[17] = Compound 1 200 mg/m^2 followed by etoposide and carboplatin, individual subjects

CN1CCN(c2ccc(Nc3ncc4cc5n(c4n3)C3(CCCCC3)CNC5=O)nc2)CC1 [Compound 1, 2′-((5-(4-methylpiperazin-1-yl)pyridin-2-yl)amino)-7′,8′-dihydro-6′H-spiro[cyclohexane-1,9′-pyrazino[1′,2′:1,5]pyrrolo[2,3-d]pyrimidin]-6′-one]
myelotoxicity (ANC, lymphocyte count, hemoglobin, platelet count) [1]: no clinically relevant myelotoxicity | half-life ([2]; both sexes, after IV administration): ~4 h | bioavailability ([2]; oral 10 mg/kg): 30.2% | bioavailability ([2]; oral 90 mg/kg): 17.1% | AUCinf [3, 10]: 3320 ng·h/mL | Cmax [3, 10]: 2170 ng/mL | t½ [3, 10]: 10.6 h | AUC24.5 [3, 11]: 1530 ng·h/mL | AUCinf [3, 11]: 1650 ng·h/mL | Cmax [3, 11]: 587 ng/mL | t½ [3, 11]: 6.29 h | AUC24.5 [3, 12]: 2850 ng·h/mL and 1930 ng·h/mL and 2010 ng·h/mL and 2520 ng·h/mL and 1530 ng·h/mL | AUCinf [3, 12]: 2960 ng·h/mL and 3320 ng·h/mL and 2290 ng·h/mL and 2680 ng·h/mL and 1650 ng·h/mL | Cmax [3, 12]: 2170 ng/mL and 742 ng/mL and 845 ng/mL and 1840 ng/mL and 587 ng/mL | t½ [3, 12]: 8.94 h and 10.6 h and 8.91 h and 7.09 h and 7.28 h | AUCτ [3, 13]: 3300 ng·h/mL | Cmax [3, 13]: 3360 ng/mL | AUCτ [3, 14]: 2010 ng·h/mL | Cmax [3, 14]: 355 ng/mL | t½ [3, 14]: 6.99 h | AUCτ [3, 15]: 3300 ng·h/mL and 2010 ng·h/mL and 2630 ng·h/mL and 2610 ng·h/mL and 2890 ng·h/mL | Cmax [3, 15]: 723 ng/mL and 355 ng/mL and 1190 ng/mL and 3360 ng/mL | pre-dose concentration averaging ([3]; Day 3, mean): 20.6 ng/mL | AUC ([3]; human, plasma, intravenous, 200 mg/m2, 200 mg/m^2 with Etoposide and Carboplatin, Day 1, Geo. Mean, read-out: AUC24.5): 2230 ng·h/mL | AUC(0-inf) ([3]; human, plasma, intravenous, 200 mg/m2, 200 mg/m^2 with Etoposide and Carboplatin, Day 1, Geo. Mean, read-out: AUCinf): 2470 ng·h/mL | Cmax ([3]; human, plasma, intravenous, 200 mg/m2, 200 mg/m^2 with Etoposide and Carboplatin, Day 1, Geo. Mean, read-out: Cmax): 1070 ng/mL | half-life ([3]; human, plasma, intravenous, 200 mg/m2, 200 mg/m^2 with Etoposide and Carboplatin, Day 1, Geo. Mean, read-out: t½ (converted)): 8.07 h | AUC(0-inf) ([3]; human, plasma, intravenous, 200 mg/m2, 200 mg/m^2 with Etoposide and Carboplatin, Day 1, Mean, read-out: AUCinf): 2530 ng·h/mL | Cmax ([3]; human, plasma, intravenous, 200 mg/m2, 200 mg/m^2 with Etoposide and Carboplatin, Day 1, Mean, read-out: Cmax): 1200 ng/mL | half-life ([3]; human, plasma, intravenous, 200 mg/m2, 200 mg/m^2 with Etoposide and Carboplatin, Day 1, Mean, read-out: t½ (converted)): 8.19 h | AUC ([3]; human, plasma, intravenous, 200 mg/m2, 200 mg/m^2 with Etoposide and Carboplatin, Day 1, Median, read-out: AUC24.5): 2270 ng·h/mL | AUC(0-inf) ([3]; human, plasma, intravenous, 200 mg/m2, 200 mg/m^2 with Etoposide and Carboplatin, Day 1, Median, read-out: AUCinf): 2490 ng·h/mL | Cmax ([3]; human, plasma, intravenous, 200 mg/m2, 200 mg/m^2 with Etoposide and Carboplatin, Day 1, Median, read-out: Cmax): 923 ng/mL | half-life ([3]; human, plasma, intravenous, 200 mg/m2, 200 mg/m^2 with Etoposide and Carboplatin, Day 1, Median, read-out: t½ (converted)): 8.09 h | AUC ([3]; human, plasma, intravenous, 200 mg/m2, 200 mg/m^2 with Etoposide and Carboplatin, Day 1, individual subjects, read-out: AUC24.5): 2860 ng·h/mL | half-life ([3]; human, plasma, intravenous, 200 mg/m2, 200 mg/m^2 with Etoposide and Carboplatin, Day 1, individual subjects, read-out: t½ (converted)): 6.29 h | AUC ([3]; human, plasma, intravenous, 200 mg/m2, 200 mg/m^2 with Etoposide and Carboplatin, Day 3, Geo. Mean, read-out: AUCτ): 2530 ng·h/mL | Cmax ([3]; human, plasma, intravenous, 200 mg/m2, 200 mg/m^2 with Etoposide and Carboplatin, Day 3, Geo. Mean, read-out: Cmax): 1090 ng/mL | half-life ([3]; human, plasma, intravenous, 200 mg/m2, 200 mg/m^2 with Etoposide and Carboplatin, Day 3, Geo. Mean, read-out: t½ (converted)): 8.95 h | AUC ([3]; human, plasma, intravenous, 200 mg/m2, 200 mg/m^2 with Etoposide and Carboplatin, Day 3, Mean, read-out: AUCτ): 2570 ng·h/mL | Cmax ([3]; human, plasma, intravenous, 200 mg/m2, 200 mg/m^2 with Etoposide and Carboplatin, Day 3, Mean, read-out: Cmax): 1380 ng/mL | half-life ([3]; human, plasma, intravenous, 200 mg/m2, 200 mg/m^2 with Etoposide and Carboplatin, Day 3, Mean, read-out: t½ (converted)): 9.04 h | AUC ([3]; human, plasma, intravenous, 200 mg/m2, 200 mg/m^2 with Etoposide and Carboplatin, Day 3, Median, read-out: AUCτ): 2620 ng·h/mL | Cmax ([3]; human, plasma, intravenous, 200 mg/m2, 200 mg/m^2 with Etoposide and Carboplatin, Day 3, Median, read-out: Cmax): 1100 ng/mL | half-life ([3]; human, plasma, intravenous, 200 mg/m2, 200 mg/m^2 with Etoposide and Carboplatin, Day 3, Median, read-out: t½ (converted)): 9.15 h | half-life ([3]; human, plasma, intravenous, 200 mg/m2, 200 mg/m^2 with Etoposide and Carboplatin, Day 3, individual subjects, read-out: t½ (converted)): 9.27 h | AUC(0-inf) ([3]; human, plasma, intravenous, 200 mg/m2, 200 mg/m^2 with etoposide and carboplatin, Day 1, mean, read-out: AUCinf averaged): 2530 ng·h/mL | Cmax ([3]; human, plasma, intravenous, 200 mg/m2, 200 mg/m^2 with etoposide and carboplatin, Day 1, mean, read-out: Cmax averaged): 1200 ng/mL | half-life ([3]; human, plasma, intravenous, 200 mg/m2, 200 mg/m^2 with etoposide and carboplatin, Day 1, mean, read-out: Half-lives averaged (converted)): 8.19 h | half-life ([3]; human, plasma, intravenous, 200 mg/m2, 200 mg/m^2 with etoposide and carboplatin, Day 1, range, read-out: Half-lives range): 6.29 to 10.6 h | AUC ([3]; human, plasma, intravenous, 200 mg/m2, 200 mg/m^2 with etoposide and carboplatin, Day 3, mean, read-out: AUCτ averaged): 2570 ng·h/mL | Cmax ([3]; human, plasma, intravenous, 200 mg/m2, 200 mg/m^2 with etoposide and carboplatin, Day 3, mean, read-out: Cmax averaging): 1380 ng/mL | half-life ([3]; human, plasma, intravenous, 200 mg/m2, 200 mg/m^2 with etoposide and carboplatin, Day 3, mean, read-out: Half-lives averaged (converted)): 9.04 h | half-life ([3]; human, plasma, intravenous, 200 mg/m2, 200 mg/m^2 with etoposide and carboplatin, Day 3, range, read-out: Half-lives range): 6.99 to 11 h | concentration at 24.5 h ([3]; human, plasma, intravenous, Day 1, 4 subjects, mean, read-out: concentration at 24.5 hours after the start of infusion, averaging): 20 ng/mL | concentration at 24.5 h ([3]; human, plasma, intravenous, Day 1, 4 subjects, range, read-out: concentration at 24.5 hours after the start of infusion, range): 11.3 to 35.9 ng/mL | concentration at 24.5 h ([3]; human, plasma, intravenous, Day 3, mean, read-out: concentration at 24.5 hours after dosing, averaged): 24.6 ng/mL | concentration at 24.5 h ([3]; human, plasma, intravenous, Day 3, range, read-out: concentration at 24.5 hours after dosing, range): 11.5 to 34.5 ng/mL | half-life ([4]; both sexes, rats, after IV administration): ~4 h | bioavailability ([4]; oral): 60 to 70% | interferon gamma levels [5]: did not decrease significantly | dose with clinically significant leukopenia ([6]; dog, in vivo, 7 days): 300 mg/m^2 | dose leading to morbidity and mortality ([6]; dogs, daily doses for 6 days): 900 mg/m^2 | CL/F ([7]; 96 mg/m^2 IV): 121 L/h | accumulation in blood plasma on consecutive days ([7]; Compound 1): does not show accumulation | CL/F ([7]; […]^2 IV): 126 L/h | AUC(0-inf) [7, 16]: 1380 ng·h/mL | Cmax [7, 16]: 932 ng/mL | half-life [7, 16]: 8.6 h | half-life ([7]; human, plasma, iv, […]2): 7.9 h | loss of lymphocytes upon 5FU chemotherapy [8]: significantly less loss | loss of neutrophils upon 5FU chemotherapy [8]: significantly less loss | loss of platelets upon 5FU chemotherapy [8]: significantly less loss | loss of red blood cells upon 5FU chemotherapy [8]: significantly less loss | Cycle 2 Target Lesion Sum [9, 17]: 74 and 22 and 76 and 161 and 50 and 35 | Cycle4 Target Lesion Sum [9, 17]: 54 and 0 (2×) and 62 and 146 | Cycle 6 Target Lesion Sum [9, 17]: 47 and 0 | patients with at least partial responses ([9]; Compound 1 200 mg/m^2 with etoposide and carboplatin, 2 to 6 cycles, 6 patients): 6 patients
